Results published in patent US9650340B2, “5-fluoro-N-(pyridin-2-yl)pyridin-2-amine derivatives containing a sulfoximine group” (BAYER PHARMA AKTIENGESELLSCHAFT, priority 2012, dated 2017).
Structures can show the parent of a compound that is named as a salt. Where two headings read alike, the source gives them in different places.

Columns and labels:
[1] = tested on: NCI-H460, human non-small cell lung carcinoma cells; assay: Proliferation assay, NCI-H460 (crystal violet); format: cell-based; settings: NCI-H460, 4 days, read-out: Inhibition of NCI-H460 cell proliferation IC50
Experimental: (§1) Cultivated tumour cells (HeLa, human cervical tumour cells, ATCC CCL-2; NCI-H460, human non-small cell lung carcinoma cells, ATCC HTB-177; A2780, human ovarian carcinoma cells, ECACC #93112519; DU 145, hormone-independent human prostate carcinoma cells, ATCC HTB-81; HeLa-MaTu-ADR, multidrug-resistant human cervical carcinoma cells, EPO-GmbH Berlin; Caco-2, human colorectal carcinoma cells, ATCC HTB-37; B16F10, mouse melanoma cells, ATCC CRL-6475) were plated at a density of 5,000 cells/well (DU145, HeLa-MaTu-ADR), 3,000 cells/well (NCI-H460, HeLa), 2,500 cells/well (A2780), 1,500 cells/well (Caco-2), or 1,000 cells/well (B16F10) in a 96-well multititer plate in 200 μL of their respective growth medium supplemented 10% fetal calf serum. After 24 hours, the cells of one plate (zero-point plate) were stained with crystal violet (see below), while the medium of the other plates was replaced by fresh culture medium (200 μl), to which the test substances were added in various concentrations (0 μM, as well as in the range of 0.001-10 μM; the final concentration of the solvent dimethyl sulfoxide was 0.5%). The cells were incubated for 4 days in the presence of test substances. Cell proliferation was determined by staining the cells with crystal violet: the cells were fixed by adding 20 μl/measuring point of an 11% glutaric aldehyde solution for 15 minutes at room temperature. After three washing cycles of the fixed cells with water, the plates were dried at room temperature. The cells were stained by adding 100 μl/measuring point of a 0.1% crystal violet solution (pH 3.0). After three washing cycles of the stained cells with water, the plates were dried at room temperature. The dye was dissolved by adding 100 μl/measuring point of a 10% acetic acid solution. The extinction was determined by photometry at a wavelength of 595 nm. The change of cell number, in percent, was calculated by normalization of the measured values to the extinction values of the zero-point plate (=0%) and the extinction of the untreated (0 μm) cells (=100%). The IC50 values (inhibitory concentration at 50% of maximal effect) were determined by means of a 4 parameter fit. Non-adherent MOLM-13 human acute myeloid leukemia cells (DSMZ ACC 554) were seeded at a density of 5,000 cells/well in a 96-well multititer plate in 100 μL of growth medium supplemented 10% fetal calf serum. After 24 hours, cell viability of one plate (zero-point plate) was determined with the Cell Titre-Glo Luminescent Cell Viability Assay (Promega), while 50 μL of test compound containing medium was added to the wells of the other plates (final concentrations in the range of 0.001-10 μM and DMSO controls; the final concentration of the solvent dimethyl sulfoxide was 0.5%). Cell viability was assessed after 72-hour exposure with the Cell Titre-Glo Luminescent Cell Viability Assay (Promega).

[2] = tested on: DU 145, hormone-independent human prostate carcinoma cells; assay: Proliferation assay, DU145 (crystal violet); format: cell-based; settings: DU145, 4 days, read-out: Inhibition of DU145 cell proliferation IC50
Experimental: as §1

[3] = target: T1, CDK9/CycT1 (Homo sapiens, UniProt P50750); assay: CDK9/CycT1 kinase assay (TR-FRET, 10 μM ATP); format: biochemical; settings: Method 1a
T1 construct: Recombinant full-length His-tagged human CDK9 and CycT1; His; purchased Invitrogen PV4131; host or cells: insect cells
T1 sequence (P50750 whole entry): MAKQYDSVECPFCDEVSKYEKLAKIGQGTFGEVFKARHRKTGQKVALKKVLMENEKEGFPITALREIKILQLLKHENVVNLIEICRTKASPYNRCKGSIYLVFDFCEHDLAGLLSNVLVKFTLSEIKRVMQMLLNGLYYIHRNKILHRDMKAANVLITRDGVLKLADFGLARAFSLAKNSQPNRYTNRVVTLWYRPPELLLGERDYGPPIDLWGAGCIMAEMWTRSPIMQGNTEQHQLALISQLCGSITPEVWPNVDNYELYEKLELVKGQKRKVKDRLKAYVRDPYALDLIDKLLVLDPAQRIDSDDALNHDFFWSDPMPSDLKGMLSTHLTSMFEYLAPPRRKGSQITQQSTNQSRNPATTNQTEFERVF
T1 sequence (O60563 whole entry partner): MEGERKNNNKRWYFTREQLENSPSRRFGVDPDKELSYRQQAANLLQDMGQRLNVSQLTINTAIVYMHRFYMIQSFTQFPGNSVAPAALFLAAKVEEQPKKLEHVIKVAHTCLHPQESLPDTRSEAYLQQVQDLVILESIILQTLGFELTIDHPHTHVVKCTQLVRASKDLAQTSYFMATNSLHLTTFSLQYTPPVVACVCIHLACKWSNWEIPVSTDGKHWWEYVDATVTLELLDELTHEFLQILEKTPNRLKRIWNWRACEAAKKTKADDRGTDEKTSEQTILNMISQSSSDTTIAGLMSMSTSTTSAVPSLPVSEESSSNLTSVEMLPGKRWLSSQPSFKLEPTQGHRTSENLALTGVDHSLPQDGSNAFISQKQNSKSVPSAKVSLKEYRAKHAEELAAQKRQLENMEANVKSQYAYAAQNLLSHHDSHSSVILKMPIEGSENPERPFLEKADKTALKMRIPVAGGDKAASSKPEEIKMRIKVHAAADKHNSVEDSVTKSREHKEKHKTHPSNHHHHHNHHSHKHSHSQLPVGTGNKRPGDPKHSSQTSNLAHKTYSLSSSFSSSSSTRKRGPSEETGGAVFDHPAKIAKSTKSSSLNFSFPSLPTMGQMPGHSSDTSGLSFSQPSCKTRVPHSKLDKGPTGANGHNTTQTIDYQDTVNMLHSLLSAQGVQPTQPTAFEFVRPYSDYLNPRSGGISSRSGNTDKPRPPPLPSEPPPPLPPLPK
Text: 1a. CDK9/CyeT1 Kinase Assay:
CDK9/CycT1-inhibitory activity of compounds of the present invention was quantified employing the CDK9/CycT1 TR-FRET assay as described in the following paragraphs:
Recombinant full-length His-tagged human CDK9 and CycT1, expressed in insect cells and purified by Ni-NTA affinity chromatography, were purchased from Invitrogen (Cat. No PV4131). As substrate for the kinase reaction biotinylated peptide biotin-Ttds-[…] (C-terminus in amid form) was used which can be purchased e.g. form the company JERINI Peptide Technologies (Berlin, Germany). For the assay 50 nl of a 100 fold concentrated solution of the test compound in DMSO was pipetted into a black low volume 384 well microtiter plate (Greiner Bio-One, Frickenhausen, Germany), 2 μl of a solution of CDK9/CycT1 in aqueous assay buffer [50 mM Tris/HCl pH 8.0, 10 mM MgCl2, 1.0 mM dithiothreitol, 0.1 mM sodium ortho-vanadate, 0.01% (v/v) Nonidet-P40 (Sigma)] were added and the mixture was incubated for 15 min at 22° C. to allow pre-binding of the test compounds to the enzyme before the start of the kinase reaction.
The resulting mixture was incubated 1 h at 22° C. to allow the formation of complex between the phosphorylated biotinylated peptide and the detection reagents. Subsequently the amount of phosphorylated substrate was evaluated by measurement of the resonance energy transfer from the Eu-chelate to the streptavidine-XL.

Structure (SMILES)	IC50 ([1]; Homo sapiens, NCI-H460, 96 h) [nM]	IC50 ([2]; Homo sapiens, DU-145, 96 h) [nM]	IC50 [3] [nM]	IC50 [1] [nM]	IC50 [2] [nM]
COc1cc(F)ccc1-c1cc(Nc2cc(CS(C)(=N)=O)ccn2)ncc1F (racemic) [Example 1, (rac)-5-Fluoro-4-(4-fluoro-2-methoxyphenyl)-N-{4-[(S-methylsulfonimidoyl)methyl]pyridin-2-yl}pyridin-2-amine]	62	37	–	–	–
COc1cc(F)ccc1-c1cc(Nc2cc(CS(C)(=N)=O)cc(C)n2)ncc1F (racemic) [Example 4, (rac)-5-Fluoro-4-(4-fluoro-2-methoxyphenyl)-N-{6-methyl-4-[(S-methylsulfonimidoyl)methyl]pyridin-2-yl}pyridin-2-amine]	97	67	4	–	–
COc1cc(F)ccc1-c1cc(Nc2cc(CS(C)(=N)=O)c(Br)c(C)n2)ncc1F (racemic) [Example 5, (rac)-5-Bromo-N-[5-fluoro-4-(4-fluoro-2-methoxyphenyl)pyridin-2-yl]-6-methyl-4-[(S-methylsulfonimidoyl)methyl]pyridin-2-amine]	120	110	5	–	–
COc1cc(CS(C)(=N)=O)cc(Nc2cc(-c3ccc(F)cc3OC)c(F)cn2)n1 (racemic) [Example 6, (rac)-5-Fluoro-4-(4-fluoro-2-methoxyphenyl)-N-{6-methoxy-4-[(S-methylsulfonimidoyl)methyl]pyridin-2-yl}pyridin-2-amine]	33	30	2	–	–
COc1cc(F)ccc1-c1cc(Nc2cc(CS(C)(=N)=O)cc(Cl)n2)ncc1F (racemic) [Example 7, (rac)-N-{6-Chloro-4-[(S-methylsulfonimidoyl)methyl]pyridin-2-yl}-5-fluoro-4-(4-fluoro-2-methoxyphenyl)pyridin-2-amine]	47	37	2	–	–
COc1cc(F)ccc1-c1cc(Nc2cc(CS(=N)(=O)CCO)ccn2)ncc1F (racemic) [Example 8, (rac)-2-{S-[(2-{[5-Fluoro-4-(4-fluoro-2-methoxyphenyl)pyridin-2-yl]amino}pyridin-4-yl)methyl]sulfonimidoyl}ethanol]	290	110	13	–	–
COc1cc(F)ccc1-c1cc(Nc2cc(CS(=N)(=O)CCN)ccn2)ncc1F (racemic) [Example 9, (rac)-N-(4-{[S-(2-Aminoethyl)sulfonimidoyl]methyl}pyridin-2-yl)-5-fluoro-4-(4-fluoro-2-methoxyphenyl)pyridin-2-amine]	–	–	8	–	–
CCOC(=O)N=S(C)(=O)Cc1ccnc(Nc2cc(-c3ccc(F)cc3OC)c(F)cn2)c1 (racemic) [Example 11, (rac)-Ethyl{[(2-{[5-fluoro-4-(4-fluoro-2-methoxyphenyl)pyridin-2-yl]amino}pyridin-4-yl)methyl](methyl)oxido-λ^6-sulfanylidene}carbamate]	110	110	1	–	–
CCNC(=O)N=S(C)(=O)Cc1ccnc(Nc2cc(-c3ccc(F)cc3OC)c(F)cn2)c1 (racemic) [Example 12, (rac)-1-Ethyl-3-{[(2-{[5-fluoro-4-(4-fluoro-2-methoxyphenyl)pyridin-2-yl]amino}pyridin-4-yl)methyl](methyl)oxido-λ^6-sulfanylidene}urea]	100	77	2	–	–
COc1cc(F)ccc1-c1cc(Nc2cc(CS(C)(=O)=NC(C)=O)ccn2)ncc1F (racemic) [Example 13, (rac)-N-{[(2-{[5-Fluoro-4-(4-fluoro-2-methoxyphenyl)pyridin-2-yl]amino}pyridin-4-yl)methyl](methyl)oxido-λ^6-sulfanylidene}acetamide]	110	110	1	–	–
COc1cc(F)ccc1-c1cc(Nc2cc(CS(C)(=N)=O)cc(C(F)F)n2)ncc1F (racemic) [Example 31, (rac)-N-{6-(Difluoromethyl)-4-[(S-methylsulfonimidoyl)methyl]pyridin-2-yl}-5-fluoro-4-(4-fluoro-2-methoxyphenyl)pyridin-2-amine]	–	–	3	–	–
COc1cc(F)ccc1-c1cc(Nc2cc(CS(C)(=N)=O)ccn2)ncc1F (single isomer, unassigned; (+)) [Example 2, (+)-5-Fluoro-4-(4-fluoro-2-methoxyphenyl)-N-{4-[(S-methylsulfonimidoyl)methyl]pyridin-2-yl}pyridin-2-amine]	–	–	–	75	33
COc1cc(F)ccc1-c1cc(Nc2cc(CS(C)(=N)=O)cc(C)n2)ncc1F (single isomer, unassigned; (+)) [Example 32, (+)-5-Fluoro-4-(4-fluoro-2-methoxyphenyl)-N-{6-methyl-4-[(S-methylsulfonimidoyl)methyl]pyridin-2-yl}pyridin-2-amine]	–	38	–	100	–
COc1cc(F)ccc1-c1cc(Nc2cc(CS(C)(=N)=O)ccn2)ncc1F (single isomer, unassigned; (-)) [Example 3, (−)-5-Fluoro-4-(4-fluoro-2-methoxyphenyl)-N-{4-[(S-methylsulfonimidoyl)methyl]pyridin-2-yl}pyridin-2-amine]	–	–	–	65	37
COc1cc(F)ccc1-c1cc(Nc2cc(CS(C)(=N)=O)cc(C(F)(F)F)n2)ncc1F (single isomer, unassigned; (-)) [Example 23, (−)-5-Fluoro-4-(4-fluoro-2-methoxyphenyl)-N-{4-[(S-methylsulfonimidoyl)methyl]-6-(trifluoromethyl)pyridin-2-yl}pyridin-2-amine]	–	–	–	35	34
COc1cc(F)ccc1-c1cc(Nc2cc(CS(C)(=N)=O)cc(C)n2)ncc1F (single isomer, unassigned; (-)) [Example 33, (−)-5-Fluoro-4-(4-fluoro-2-methoxyphenyl)-N-{6-methyl-4-[(S-methylsulfonimidoyl)methyl]pyridin-2-yl}pyridin-2-amine]	–	–	–	30	31
COc1cc(F)ccc1-c1cc(Nc2cc(CS(C)(=N)=O)ccn2)ncc1F (single isomer, unassigned; enantiomer 1) [Example 16, 5-Fluoro-4-(4-fluoro-2-methoxyphenyl)-N-{4-[(S-methylsulfonimidoyl)methyl]pyridin-2-yl}pyridin-2-amine hydrochloride; enantiomer 1]	–	–	–	130	120
COc1cc(F)ccc1-c1cc(Nc2cc(CS(C)(=N)=O)ccn2)ncc1F.Cl (single isomer, unassigned; enantiomer 2) [Example 14, 5-Fluoro-4-(4-fluoro-2-methoxyphenyl)-N-{4-[(S-methylsulfonimidoyl)methyl]pyridin-2-yl}pyridin-2-amine hydrochloride; enantiomer 2]	–	–	–	30	33
